Data from ChEMBL document CHEMBL4680280, “Modulation of the Innate Immune Response by Targeting Toll-like Receptors: A Perspective on Their Agonists and Antagonists” (J Med Chem, 2020).

Experiments:
[1] = biological target: T1, Toll-like receptor 2 (Homo sapiens, UniProt O60603); test: Agonist activity at TLR2 in HEK-Blue hTLR2 cells assessed as NF-kappaB activation preincubated for 24 hrs followed by replacement of medium containing compound and measured after 0.5 to 1 hrs by Quanti-blue SEAP assay
[2] = biological target: Toll-like receptor 4 (Homo sapiens, UniProt O00206); test: Modulation of TLR4 in human THP1 cells assessed as reduction in LPS-induced TLR4 expression pretreated for 2 hrs followed by LPS challenge and measured after 18 hrs by flow cytometry; assay type: cell-based, THP-1
[3] = biological target: T1, Toll-like receptor 2; test: Agonist activity at TLR2 (unknown origin)
[4] = biological target: Toll-like receptor 5 (Homo sapiens, UniProt O60602); test: Inhibition of Flagellin-BS binding to human TLR5 expressed in HEK293 cells harboring SEAP reporter gene preincubated for 24 hrs followed by compound wash out and subsequent Flagellin-BS addition along with compound and measured after 0.5 hrs by QUANTI-Blue assay; assay type: cell-based
Toll-like receptor 5, sequence (O60602 whole entry): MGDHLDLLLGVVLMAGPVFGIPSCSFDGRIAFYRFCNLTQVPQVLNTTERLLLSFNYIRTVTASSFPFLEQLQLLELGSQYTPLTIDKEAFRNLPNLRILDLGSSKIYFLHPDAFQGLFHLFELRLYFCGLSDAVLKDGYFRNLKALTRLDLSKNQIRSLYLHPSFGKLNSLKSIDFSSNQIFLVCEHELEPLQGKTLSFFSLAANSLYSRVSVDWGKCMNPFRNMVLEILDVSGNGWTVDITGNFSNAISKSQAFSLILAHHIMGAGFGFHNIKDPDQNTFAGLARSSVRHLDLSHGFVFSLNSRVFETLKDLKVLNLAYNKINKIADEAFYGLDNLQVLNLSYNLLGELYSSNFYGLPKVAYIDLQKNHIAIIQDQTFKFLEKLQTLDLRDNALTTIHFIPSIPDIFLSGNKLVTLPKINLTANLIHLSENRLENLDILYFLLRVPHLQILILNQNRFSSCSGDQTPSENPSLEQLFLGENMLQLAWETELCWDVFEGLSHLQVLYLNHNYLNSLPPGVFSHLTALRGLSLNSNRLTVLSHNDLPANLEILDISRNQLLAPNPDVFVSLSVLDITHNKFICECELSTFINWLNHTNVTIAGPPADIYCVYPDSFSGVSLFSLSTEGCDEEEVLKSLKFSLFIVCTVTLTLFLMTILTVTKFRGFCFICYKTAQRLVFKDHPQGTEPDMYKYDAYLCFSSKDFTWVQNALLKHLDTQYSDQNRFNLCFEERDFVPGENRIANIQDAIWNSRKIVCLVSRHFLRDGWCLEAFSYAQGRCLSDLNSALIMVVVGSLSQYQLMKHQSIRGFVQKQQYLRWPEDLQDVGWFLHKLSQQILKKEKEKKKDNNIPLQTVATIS

T1 sequence (O60603 whole entry): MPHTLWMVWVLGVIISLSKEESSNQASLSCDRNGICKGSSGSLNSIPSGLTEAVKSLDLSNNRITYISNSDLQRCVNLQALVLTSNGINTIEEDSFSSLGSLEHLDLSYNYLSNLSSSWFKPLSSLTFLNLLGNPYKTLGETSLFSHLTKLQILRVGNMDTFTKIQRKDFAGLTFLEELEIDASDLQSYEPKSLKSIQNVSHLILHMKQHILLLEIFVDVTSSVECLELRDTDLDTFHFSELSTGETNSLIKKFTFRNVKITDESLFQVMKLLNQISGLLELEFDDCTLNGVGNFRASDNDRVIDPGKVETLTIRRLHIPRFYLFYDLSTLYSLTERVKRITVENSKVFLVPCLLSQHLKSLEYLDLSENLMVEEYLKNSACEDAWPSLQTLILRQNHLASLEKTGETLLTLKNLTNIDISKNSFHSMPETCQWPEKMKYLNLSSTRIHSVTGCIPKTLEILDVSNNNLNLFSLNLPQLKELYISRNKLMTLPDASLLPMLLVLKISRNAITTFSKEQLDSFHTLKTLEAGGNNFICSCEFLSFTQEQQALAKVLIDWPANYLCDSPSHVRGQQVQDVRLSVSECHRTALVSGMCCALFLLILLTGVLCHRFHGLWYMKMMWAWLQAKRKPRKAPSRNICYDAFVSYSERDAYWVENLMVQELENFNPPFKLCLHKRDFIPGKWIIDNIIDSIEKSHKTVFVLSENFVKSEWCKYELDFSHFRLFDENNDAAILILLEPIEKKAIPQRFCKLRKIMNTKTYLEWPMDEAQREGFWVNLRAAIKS
Toll-like receptor 4, sequence (O00206 whole entry): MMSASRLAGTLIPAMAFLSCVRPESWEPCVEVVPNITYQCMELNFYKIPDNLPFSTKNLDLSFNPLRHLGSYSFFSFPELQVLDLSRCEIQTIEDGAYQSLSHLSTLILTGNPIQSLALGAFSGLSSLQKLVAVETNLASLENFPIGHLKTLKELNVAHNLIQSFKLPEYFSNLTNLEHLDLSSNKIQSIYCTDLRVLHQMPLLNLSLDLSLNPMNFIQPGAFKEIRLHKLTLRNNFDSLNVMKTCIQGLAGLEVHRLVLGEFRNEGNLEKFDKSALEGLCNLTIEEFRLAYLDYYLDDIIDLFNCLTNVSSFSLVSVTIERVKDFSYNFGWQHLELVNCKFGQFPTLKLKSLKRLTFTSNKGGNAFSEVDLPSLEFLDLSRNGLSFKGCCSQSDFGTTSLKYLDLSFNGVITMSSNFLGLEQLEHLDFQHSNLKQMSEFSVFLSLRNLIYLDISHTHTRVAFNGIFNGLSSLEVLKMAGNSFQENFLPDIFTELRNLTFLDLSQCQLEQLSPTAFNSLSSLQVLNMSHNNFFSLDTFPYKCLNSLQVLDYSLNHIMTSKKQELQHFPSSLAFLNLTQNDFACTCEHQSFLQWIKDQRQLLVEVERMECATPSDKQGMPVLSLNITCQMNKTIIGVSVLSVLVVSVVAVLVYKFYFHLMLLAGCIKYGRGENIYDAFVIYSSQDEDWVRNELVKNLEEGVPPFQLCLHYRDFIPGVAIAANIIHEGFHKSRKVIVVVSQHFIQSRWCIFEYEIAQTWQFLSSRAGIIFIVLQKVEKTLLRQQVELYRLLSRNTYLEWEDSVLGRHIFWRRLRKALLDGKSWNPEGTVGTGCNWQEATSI

EC50 [3] [nM]	Structure (SMILES)	further results
–	CCOC(=O)c1c(NC(=O)N2CCN(C)CC2)sc2c1CCC2	EC50 [1]: 550 nM
–	C=C1C(=O)O[C@@H]2[C@H]3O[C@]3(C)CC/C=C(\C)CC[C@@H]12	IC50 [2]: 1400 nM
0.28	CCCCCCCCCCCCCCCC(=O)OC[C@H](CSC[C@H](NC(C)=O)C(=O)N[C@@H](CO)C(=O)N[C@@H](CCCCN)C(=O)N[C@@H](CCCCN)C(=O)N[C@@H](CCCCN)C(=O)N[C@@H](CCCCN)C(=O)N[C@@H](CO)C(=O)N[C@@H](CC(C)C)C(=O)N[C@H](CN[C@@H](CCSC)C(=O)N[C@@H](Cc1c[nH]c2ccccc12)C(=O)N[C@H](C(=O)N[C@H](C(=O)N[C@@H](CCC(N)=O)C(=O)N[C@H](C(=O)O)C(C)C)[C@@H](C)O)[C@@H](C)CC)CC(C)C)OC(=O)CCCCCCCCCCCCCCC	–
–	CNc1ccc([N+](=O)[O-])cc1-n1cnc(-c2ccc(C(F)(F)F)cc2O)c1	EC50 [1]: 4.88 nM
0.3	CCCCCCCCCCCCCCCC(=O)OCCCC[C@H](CSC[C@H](N)C(=O)N[C@@H](CO)C(=O)N[C@@H](CCCCN)C(=O)N[C@@H](CCCCN)C(=O)N[C@@H](CCCCN)C(=O)N[C@@H](CCCCN)C(=O)N[C@@H](CO)C(=O)N[C@@H](CC(C)C)C(=O)N[C@H](CN[C@@H](CCSC)C(=O)N[C@@H](Cc1c[nH]c2ccccc12)C(=O)N[C@H](C(=O)N[C@H](C(=O)N[C@@H](CCC(N)=O)C(=O)N[C@H](C(=O)O)C(C)C)[C@@H](C)O)[C@@H](C)CC)CC(C)C)OC(=O)CCCCCCCCCCCCCCC	–
0.47	CCCCCCCCCCCCCCCC(=O)OC[C@H](CSC[C@H](N)C(=O)N[C@@H](CO)C(=O)N[C@@H](CCCCN)C(=O)N[C@@H](CCCCN)C(=O)N[C@@H](CCCCN)C(=O)N[C@@H](CCCCN)C(=O)N[C@@H](CO)C(=O)N[C@@H](CC(C)C)C(=O)N[C@H](CN[C@@H](CCSC)C(=O)N[C@@H](Cc1c[nH]c2ccccc12)C(=O)N[C@H](C(=O)N[C@H](C(=O)N[C@@H](CCC(N)=O)C(=O)N[C@H](C(=O)O)C(C)C)[C@@H](C)O)[C@@H](C)CC)CC(C)C)OC(=O)CCCCCCCCCCCCCCC	–
0.38	CCCCCCCCCCCCCCCC(=O)OCCC[C@H](CSC[C@H](N)C(=O)N[C@@H](CO)C(=O)N[C@@H](CCCCN)C(=O)N[C@@H](CCCCN)C(=O)N[C@@H](CCCCN)C(=O)N[C@@H](CCCCN)C(=O)N[C@@H](CO)C(=O)N[C@@H](CC(C)C)C(=O)N[C@H](CN[C@@H](CCSC)C(=O)N[C@@H](Cc1c[nH]c2ccccc12)C(=O)N[C@H](C(=O)N[C@H](C(=O)N[C@@H](CCC(N)=O)C(=O)N[C@H](C(=O)O)C(C)C)[C@@H](C)O)[C@@H](C)CC)CC(C)C)OC(=O)CCCCCCCCCCCCCCC	–
–	c1ccc(Cn2c(Sc3ncnc4c3sc3ncccc34)nnc2-c2ccncc2)cc1	IC50 [4]: 850 nM
